In patent US7491495B2, “Adsorption of nucleic acids to a solid phase” (Roche Diagnostics Operations, Inc., priority 2004, dated 2009):
Read-outs that look alike come from different tables or passages of the source.

Biological target: proteinase K (Parengyodontium album, UniProt P06873)
Settings: relative to 0 min control buffer without chaotropic agent (0.5 U/ml = 100%); for Activity of proteinase K at t = 0 min: 0 min value; for Activity of proteinase K at t = 15 min: 15 min value
Description: 10 μl of a 20 mg/ml stock solution of proteinase K (Roche Diagnostics GmbH, Mannheimm, catalogue no. 745723; 90 mg dissolved in 4.5 ml water) was mixed with a chaotropic buffer containing 50 mM Tris-HCl pH 6.0, 1% DTT, 20% TRITON X-100 and x M Guanidinum thiocyanate; x=0, 1, 2, 3, 4, 5, 6). Directly after mixing the proteinase K activity was measured in a first aliquot (10 μl) of the mixture using the assay described below (0 min activity value). 15 min after mixing the proteinase K activity was measured in a second aliquot (10 μl) of the mixture using the assay described below (15 min activity value).
10 μl of the proteinase K in chaotropic buffer (see above, (A)) were mixed with assay buffer, that is to say 980 μl 0.2 M Triethanolamin, 0.05% (weight by volume) PEG 6000, 0.1 M Calcium chloride, and 10 μl of a 200 mM substate solution. The substrate was Suc-Ala-Ala-Ala-p-Nitroanilid. The assay buffer was provided in a cuvette. Immediately after mixing the cuvette was placed in a Photometer. Measurements (absorption) were taken over 15 min at 25° C. The activity of proteinase K in the assay buffer was calculated from the kinetics as indicated by a change in absorption at 405 nm.
Table 1 lists the 0 min values of the activity of proteinase K in the presence of guanidinium thiocyanate at the different concentrations given in (A). Table 2 lists the 15 min values of the activity of proteinase K in the presence of guanidinium thiocyanate at the different concentrations given in (A) as well as the control value (no chaotropic agent present). The values are expressed in relation to the 0 min activity value of proteinase K in the control buffer without chaotropic agent (see (A)), corresponding to 0.5 U/ml; this value was set as 100%. The data of Table 1 and Table 2 are graphically represented in FIG. 1 and FIG. 2.

proteinase K, sequence (P06873 106-384): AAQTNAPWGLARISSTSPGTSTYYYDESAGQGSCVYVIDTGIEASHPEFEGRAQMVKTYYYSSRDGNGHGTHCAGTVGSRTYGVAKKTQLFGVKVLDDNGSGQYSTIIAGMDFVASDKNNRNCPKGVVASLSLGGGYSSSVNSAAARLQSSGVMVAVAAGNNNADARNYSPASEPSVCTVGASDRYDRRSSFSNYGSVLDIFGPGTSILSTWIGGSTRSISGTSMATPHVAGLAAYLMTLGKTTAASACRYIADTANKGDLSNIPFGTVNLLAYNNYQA

## N#CS.N=C(N)N [guanidinium thiocyanate]
1 M guanidinium thiocyanate
  Activity of proteinase K at t = 0 min: 94%
  Activity of proteinase K at t = 15 min: 95%
2 M guanidinium thiocyanate
  Activity of proteinase K at t = 0 min: 100%
  Activity of proteinase K at t = 15 min: 95%
3 M guanidinium thiocyanate
  Activity of proteinase K at t = 0 min: 66%
  Activity of proteinase K at t = 15 min: 1%
4 M guanidinium thiocyanate
  Activity of proteinase K at t = 0 min: 1%
  Activity of proteinase K at t = 15 min: 0%
5 M guanidinium thiocyanate
  Activity of proteinase K at t = 0 min: 0%
  Activity of proteinase K at t = 15 min: 0%
6 M guanidinium thiocyanate
  Activity of proteinase K at t = 0 min: 0%
  Activity of proteinase K at t = 15 min: 0%
